These results are taken from US20040018150A1, “Prodrugs of phosphonate nucleotide analogues and methods for selecting and making same” (priority 2003, published 2004).

The test system of series [1] is HIV-1.
For series [2], the system named is HIV-1. The series can be described thus: microbe, parasite or virus in culture.
A short description of series [3]: Incubation of radiolabeled PMPA prodrugs or PMPA in human whole blood; metabolites in plasma, PBMCs and RBCs. Conditions: human, 1 h. The class given is in vitro ADME.
Method: After 1 hour, plasma, red blood cells (RBCs) and peripheral blood mononuclear cells (PBMCs) were isolated and analyzed by HPLC with radiometric detection.
The nature of another series: in vitro. Particulars: human.
Series [4] relates to HIV-1. Particulars: anti-HIV-1; from Mulato and Cherrington, Antiviral Research 36, 91 (1997); cited from earlier work.
In series [5] the test system is MT-2 cells. The series can be described thus: Cytotoxicity in MT-2 cells. Conditions: cell culture.
For series [6], the system named is MT-2 cells.
For series [7] the following is noted: for PMPA AUC in PBMC Mean / PMPA AUC in Plasma Mean: dog, in vivo, po; for PBMC/Plasma Exposure Ratio / Prodrug in Plasma: dogs, oral, 10 mg-equivalent of PMPA/kg. The protocol:
Formulations. The prodrugs were formulated as solutions in 50 mM citric acid within 0.5 hour prior to dose. All compounds used in the studies were synthesized by Gilead Sciences. The following lots were used:
Dose Administration and Sample Collection. The in-life phase of this study was conducted in accordance with the recommendations of the “Guide for the Care and Use of Laboratory Animals” (National Institutes of Health publication 86-23) and was approved by an Institutional Animal Care and Use Committee. Fasted male beagle dogs (10±2 kg) were used for the studies. Each drug was administered as a single dose by oral gavage (1.5-2 ml/kg). The dose was 10 mg-equivalent of PMPA/kg. For PBMCs, blood samples were collected at 0 (pre-dose), 2,8, and 24 h post-dose. […] Blood (1.0 ml) was processed immediately for plasma by centrifugation at 2,000 rpm for 10 min. Plasma samples were frozen and maintained at […] until analyzed.
Peripheral Blood Mononuclear Cell (PBMC) preparation. Whole blood (8 ml) drawn at specified time points was mixed in equal proportion with phosphate buffered saline (PBS), layered onto 15 ml of Ficoll-Paque solution (Pharmacia Biotech,) and centrifuged at 400×g for 40 min. PBMC layer was removed and washed once with PBS. Formed PMBC pellet was reconstituted in 0.5 ml of PBS, cells were resuspended, counted using hemocytometer and maintained at […] until analyzed. The number of cells multiplied by the mean single-cell volume was used in calculation of intracellular concentrations. […] Agents Chemother.
Determination of PMPA and Prodrugs in plasma and PBMCs. […] Derivatized samples were then evaporated to dryness and reconstituted in 100 μl of water for HPLC analysis.
Before intracellular PMPA could be determined by HPLC, the large amounts of adenine related ribonucleotides present in the PBMC extracts had to be removed by selective oxidation.
The HPLC system was comprised of a P4000 solvent delivery system with AS3000 autoinjector and F2000 fluorescence detector (Tlermo Separation, San Jose, Calif.). […] The mobile phases used were: A, 5% acetonitrile in 25 mM potassium phosphate buffer with 5 mM tetrabutyl ammonium bromide (TBABr), pH 6.0; B, 60% acetonitrile in 25 mM potassium phosphate buffer with 5 mM TBABr, pH 6.0. The flow rate was 2 ml/min and the column temperature was maintained at 35° C. by a column oven. The gradient profile was 90% A/10% B for 10 min for PMPA and 65%A/35%B for 10 min for the prodrug. […] Data was acquired and stored by a laboratory data acquisition system (PeakPro, Beckman, Allendale, N.J.).
Pharmacokinetic Calculations. […] The AUC values were calculated using the trapezoidal rule.

Series [8] is described as follows: Stability / hydrolysis in MT-2 cell extract. The format is in vitro ADME. Conditions: 37° C., HEPES buffer pH 7.4. Here is the method:
(§1) The in vitro metabolism and stability of separated diastereomers were determined in PLCE, MT-2 extract and human plasma. A biological sample listed below, 80 μL, was transferred into a screw-capped centrifuge tube and incubated at 37° C. for 5 min. A solution containing 0.2 mg/mL of the test compound in a suitable buffer, 20 μL, was added to the biological sample and mixed. The reaction mixture, 20 μL, was immediately sampled and mixed with 60 μL of methanol containing 0.015 mg/mL of 2-hydroxymethylnaphthalene as an internal standard for HPLC analysis. The sample was taken as the time-zero sample. Then, at specific time points, the reaction mixture, 20 μL, was sampled and mixed with 60 μL of methanol containing the internal standard. The mixture thus obtained was centrifuged at 15,000 G for 5 min and the supernatant was analyzed with HPLC under the conditions described below.
(2) MT-2 cell extract was prepared from MT-2 cells according to the published procedure [A. Pompon, I. Lefebvre, J.-L. Imbach, S. Kahn, and D. Farquhar, “Antiviral Chemistry & Chemotherapy”, 5:91-98 (1994)] except for using HEPES buffer described below as the medium.
In the study for MT-2 cell extracts, the test compound was dissolved in HEPES buffer. HEPES buffer contains 0.010 M HEPES, 0.05 M potassium chloride, 0.005 M magnesium chloride, and 0.005 M dl-dithiothreitol. pH 7.4 at 37° C.
(§2) The HPLC analysis was carried out under the following conditions.

Series [9] deals with PLCE (porcine liver carboxyesterase). The series can be described thus: in vitro. The format is in vitro ADME. Particulars: 37° C., PBS pH 7.4. Here is the method: as §1
(1) PLCE (porcine liver carboxyesterase from Sigma, 160 u/mg protein, 21 mg protein/mL) diluted 20 fold with PBS (phosphated-buffered saline).
In the study for PLCE, the test compound was dissolved in PBS. PBS (phosphate-buffered saline, Sigma) contains 0.01 M phosphate, 0.0027 M potassium chloride, and 0.137 M sodium chloride. pH 7.4 at 37° C.
as §2

Series [10] can be described thus: Stability in human plasma. The format is in vitro ADME. Conditions: 37° C., TBS pH 7.5. The protocol: as §1
(3) Human plasma (pooled normal human plasma from George King Biomedical Systems, Inc.)
In the study for human plasma, the test compound was dissolved in TBS. TBS (tris-buffered saline, Sigma) contains 0.05 M Tris, 0.0027 M potassium chloride, and 0.138 M sodium chloride. pH 7.5 at 37° C.
as §2

Setting [11] is: Human immunodeficiency virus 1, MT2.
[12] abbreviates: activity of diastereomer A versus B.
Setting [13] is: cell culture anti-HIV-1 activity, separated diastereomers and 1:1 mixtures.

Like-named read-outs stand apart in the source and are kept apart here.

On to `COC(=O)C(Cc1ccccc1)NP(=O)(COC(C)Cn1cnc2c(N)ncnc21)Oc1ccccc1` (single isomer, unassigned) [GS-7003b], for which, in the series with HIV-1 [1], the Fold change is 50× and the IC50 is 0.1 µM.
For `COC(=O)[C@H](C)NP(=O)(CO[C@H](C)Cn1cnc2c(N)ncnc21)Oc1ccccc1` (single isomer, unassigned) [GS-6957b], in that order: 33× and 0.15 µM.
As to `C[C@H](Cn1cnc2c(N)ncnc21)OCP(=O)(O)O` [PMPA, 9-[2-(phosphonomethoxy)propyl]adenine], in the series on HIV-1 [1], the Fold change was 1×. Besides, the IC50 in the series on HIV-1 [2] (setting [11]) was 5 µM; in the series on HIV-1 [2] (Human immunodeficiency virus 1, MT2, read-out: HIV-1 Activity IC50), 5 µM; in the series on HIV-1 [4], 6.3 ± 3.3 µM. Further, the “Metabolites (% of Total Peak Area): PMPApp” value in series [3] is reported as 16%. Further, the CC50 in the series “in vitro” was 6000 µM.
For `Cc1cn([C@H]2C[C@H](N=[N+]=[N-])[C@@H](CO)O2)c(=O)[nH]c1=O` [AZT], the IC50 in the series with HIV-1 [4] was 0.17 ± 0.08 µM.
In the case of `Nc1ccn([C@@H]2CS[C@H](CO)O2)c(=O)n1` [Compound 3TC], the IC50 with HIV-1 [4] is 1.8 ± 0.25 µM.
Take `Cc1c(O)cccc1C(=O)N[C@@H](CSc1ccccc1)[C@H](O)CN1C[C@H]2CCCC[C@H]2C[C@H]1C(=O)NC(C)(C)C` [Nelfinavir]: the IC50 in the series on HIV-1 [4] is 0.006 ± 0.002 µM.
In the case of `CCOC(=O)CNP(=O)(CO[C@H](C)Cn1cnc2c(N)ncnc21)Oc1ccccc1` (single isomer, unassigned) [GS-7335], in the series on HIV-1 [1], the Fold change was determined as 5× and it took 1 µM to reach half-maximal inhibition (IC50).
For the compound `COC(=O)[C@H](Cc1ccccc1)NP(=O)(CO[C@H](C)Cn1cnc2c(N)ncnc21)Oc1ccccc1` (stereo partly drawn) [Phe-methylester], in the series with HIV-1 [1], the A/B activity came out at 10×; the Fold change worked out at 170×; the midpoint of inhibition, the IC50, lay at 0.03 µM. The CC50 in the series with MT-2 cells [5] is 60 µM.
The compound `COC(=O)[C@H](C)NP(=O)(CO[C@H](C)Cn1cnc2c(N)ncnc21)Oc1ccccc1` (mixture of isomers) [Ala-methylester] yielded a Fold change with HIV-1 [1] (IC50 relative to PMPA) of 200×. For the same compound, the A/B activity in the series on HIV-1 [1] (setting [12]) stood at 20×. The IC50 in the series with HIV-1 [1] (setting [13]) turned out to be 0.025 µM. For the same compound, the CC50 in the series on MT-2 cells [6] was found to be 80 µM.
In the case of `CC(C)OC(=O)[C@H](C)NP(=O)(CO[C@H](C)Cn1cnc2c(N)ncnc21)Oc1ccccc1` (stereo partly drawn) [Ala-isopropyl], the A/B activity in the series with HIV-1 [1] (setting [12]) was found to be 12×. Further, the IC50 in the series on HIV-1 [2] (setting [11]) worked out at 0.01 µM.
With `Nc1ncnc2c1ncn2CCOCP(=O)(O)O` [Adefovir (PMEA), 9-[2-(phosphonomethoxy)ethyl]adenine], the 50% inhibitory concentration (IC50) with HIV-1 [4] is 13.4 ± 4.2 µM.
As for `CCOC(=O)[C@H](C)N[P@@](=O)(CO[C@H](C)Cn1cnc2c(N)ncnc21)Oc1ccccc1` (mixture of isomers) [Ala-ethyl, Phenyl PMPA, Ethyl L-Alanyl Amidate], the Fold change in the series with HIV-1 [1] (IC50 relative to PMPA) is listed as 250×. The A/B activity in the series on HIV-1 [1] (setting [12]) amounted to 10×. The IC50 in the series with HIV-1 [1] (setting [13]) was 0.02 µM. This compound came in with a CC50 in the series with MT-2 cells [5] of 60 µM.
On to `Cc1cn([C@H]2C=C[C@@H](CO)O2)c(=O)[nH]c1=O` [d4T], for which the half-maximal inhibitory concentration (IC50) with HIV-1 [4] is 8 ± 2.5 µM.
Regarding `CCOC(=O)[C@H](CC)NP(=O)(CO[C@H](C)Cn1cnc2c(N)ncnc21)Oc1ccccc1` (stereo partly drawn) [ABA-ethyl], in the series on HIV-1 [1], the A/B activity worked out at 7.5×, the Fold change was found to be 625× and half-maximal inhibition (IC50) was put at 0.008 µM. The compound further gave a CC50 in the series on MT-2 cells [5] of over 100 µM.
In the series on HIV-1 [1], `CCOC(=O)CNP(=O)(CO[C@H](C)Cn1cnc2c(N)ncnc21)Oc1ccccc1` (stereo partly drawn) [GS-7119] returned a Fold change of 100× and an IC50 of 0.05 µM. In series [7], the “PMPA AUC in PBMC Mean” value amounted to 530, the “PMPA AUC in Plasma Mean” value worked out at 6.11, the “PBMC/Plasma Exposure Ratio” value was 87 and the “Prodrug in Plasma” value is on record as “YES”. The compound also had a CC50 in the series with MT-2 cells [5] of over 100 µM.
For `COC(=O)C(C)NP(=O)(COC(C)Cn1cnc2c(N)ncnc21)Oc1ccccc1` (single isomer, unassigned) [GS-6957a], in the series with HIV-1 [1], the Fold change is recorded as 670× and the concentration for half-maximal inhibition (IC50) came out at 0.0075 µM.
The matching figures for `COC(=O)C(Cc1ccccc1)NP(=O)(COC(C)Cn1cnc2c(N)ncnc21)Oc1ccccc1` (single isomer, unassigned) [GS-7003a]: 500× and 0.01 µM.
As for `CCOC(=O)C(CC)NP(=O)(COC(C)Cn1cnc2c(N)ncnc21)Oc1ccccc1` (stereo not drawn) [GS-7342], the “MT-2 extract hydrolysis product” value in series [8] is recorded as “Met. X & PMPA”. This compound came in with an IC50 with HIV-1 [1] of 0.004 µM. Moreover, the Fold change in the series on HIV-1 [1] (IC50 relative to PMPA) was 1,250×. For the same compound, the IC50 with HIV-1 [1] (read-out: HIV IC50) worked out at 0.004 µM. In series [7], the “PMPA AUC in PBMC Mean” value amounted to 1060, the “PMPA AUC in Plasma Mean” value was determined as 4.6, the “PBMC/Plasma Exposure Ratio” value worked out at 230 and the “Prodrug in Plasma” value is given as “YES”. Further, the PLCE hydrolysis product entry in series [9] is listed as “Met. X”. In series [10], the “Human Plasma Stability (HP) product” value was “Met. Y” and the “Human Plasma Stability (HP) t1/2” value was found to be 103.
